The results in this text go back to patent publication US7632839B2, “Mitotic kinesin inhibitors” (Merck & Co. Inc., priority 2005, dated 2009).

This experiment concerns the target T1, human KSP motor domain (KSP(367H)) (Homo sapiens, UniProt P52732).
T1 construct: were used to amplify the motor domain and the neck linker region; made in house; host or cells: E. coli BL21 (DE3), pRSETa
T1 sequence (P52732 18-359 limits assumed): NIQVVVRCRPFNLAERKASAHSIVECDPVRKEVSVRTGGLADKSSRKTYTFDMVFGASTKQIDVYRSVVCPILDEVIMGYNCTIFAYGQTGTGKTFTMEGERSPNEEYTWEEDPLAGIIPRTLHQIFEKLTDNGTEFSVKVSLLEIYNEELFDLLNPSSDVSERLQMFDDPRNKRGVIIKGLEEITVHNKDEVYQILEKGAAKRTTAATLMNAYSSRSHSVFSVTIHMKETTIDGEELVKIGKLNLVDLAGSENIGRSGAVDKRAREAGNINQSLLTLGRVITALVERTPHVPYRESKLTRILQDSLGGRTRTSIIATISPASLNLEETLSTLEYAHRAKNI
The experiment is described as follows: Kinesin ATPase In Vitro Assay. The class given is biochemical. To be noted: KSP motor domain with microtubules, 1 mM ATP, 23° C. An excerpt: I. Kinesin ATPase In Vitro Assay
Cloning and Expression of Human Poly-Histidine Tagged KSP Motor Domain (KSP(367H))
Plasmids for the expression of the human KSP motor domain construct were cloned by PCR using a pBluescript full length human KSP construct (Blangy et al., Cell, vol. 83, pp 1159-1169, 1995) as a template. The N-terminal primer 5′-[…] (SEQ.ID.NO.: 1) and the C-terminal primer 5′-[…] […] (SEQ.ID.NO.: 2) were used to amplify the motor domain and the neck linker region. The PCR products were digested with AseI and XhoI, ligated into the NdeI/XhoI digestion product of pRSETa (Invitrogen) and transformed into E. coli BL21 (DE3).
Cells were grown at 37° C. to an OD600 of 0.5. […]
The kinesin motor domain is incubated with microtubules, 1 mM ATP (1:1 MgCl2: Na-ATP), and compound at 23° C. in buffer containing 80 mM K-HEPES (pH 7.0), 1 mM EGTA, 1 mM DTT, 1 mM MgCl2, and 50 mM KCl. […] Free phosphate from the ATP hydrolysis reaction is measured via a quinaldine red/ammonium molybdate assay by adding 150 μl of quench C buffer containing a 2:1 ratio of quench A:quench B. Quench A contains 0.1 mg/ml quinaldine red and 0.14% polyvinyl alcohol; quench B contains 12.3 mM ammonium molybdate tetrahydrate in 1.15 M sulfuric acid. The reaction is incubated for 10 minutes at 23° C., and the absorbance of the phospho-molybdate complex is measured at 540 nm.

The structures appear in SMILES notation.

As to `Cc1ccc(C(=O)N(CC(F)CN)C(c2nc3cnccc3c(=O)n2Cc2ccccc2)C(C)C)cc1` [Compound I-13, N-(3-amino-2-(R,S)-fluoropropyl)-N-[1-(3-benzyl-4-oxo-3,4-dihydropyrido[3,4-d]pyrimidin-2-yl)-2-(R,S)-methylpropyl]-4-methylbenzamide], the IC50 – broadly, the concentration at which inhibition is half-maximal – is at most 50 µM.
